Entries after “also recorded” stand apart in the source; their conditions may differ.
Key:
[1] = target: T1, PPARα (Mus musculus, UniProt P23204); test: Cotransfection assay in CV-1 cells, PPRE3-TK-LUC reporter, CMX-PPARα; format: cell-based; conditions: 5 μM Wy 14,643, 30 μM linoleic acid, 30 μM LY-171883
T1 construct: constructed by inserting the cDNA inserts of PPARα, PPARγ, and PPARδ into pCMX; expressed in transfected cells; host or cells: CV-1 cells
T1 sequence (P23204 1-468): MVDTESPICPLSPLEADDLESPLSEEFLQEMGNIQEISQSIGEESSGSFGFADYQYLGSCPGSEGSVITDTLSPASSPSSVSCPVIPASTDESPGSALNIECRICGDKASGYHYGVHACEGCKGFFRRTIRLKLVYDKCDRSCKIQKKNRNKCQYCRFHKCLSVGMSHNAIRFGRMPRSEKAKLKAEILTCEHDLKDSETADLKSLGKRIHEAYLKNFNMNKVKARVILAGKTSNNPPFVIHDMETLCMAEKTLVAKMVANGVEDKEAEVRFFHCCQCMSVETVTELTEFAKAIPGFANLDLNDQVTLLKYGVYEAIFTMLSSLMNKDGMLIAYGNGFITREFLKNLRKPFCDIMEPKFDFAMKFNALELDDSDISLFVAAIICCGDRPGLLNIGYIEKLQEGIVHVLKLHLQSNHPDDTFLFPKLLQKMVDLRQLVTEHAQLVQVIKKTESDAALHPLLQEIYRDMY
From the text: (§1) Luciferase activities are presented as the fold activation achieved in compound-treated versus mock-treated cells. Similar results were obtained in triplicate in three independent experiments.
(§2) The mammalian expression vectors pCMX-PPARα, pCMX-PPARγ and pCMX-PPARδ were constructed by inserting the cDNA inserts of PPARα, PPARγ, and PPARδ into pCMX as previously described by Umesono et al., in Cell 65:1255-1266 (1991)). Construction of the reporter PPRE3-TK-LUC has also been previously described by Kliewer et al., (1992) supra. Cotransfection assays in CV-1 cells were done in 48 well plates using N-[1-(2,3-dioleoyloxy)-propyl [N,N,N-trimethyl ammonium methyl sulfate (DOTAP) according to the manufacturer's instructions (Boehringer Mannheim). Transfections contained 10 ng of receptor expression plasmid vector, 20 ng of the reporter PPRE3-TK-LUC, 60 ng of pCMX-βGAL (β-galactosidase) as an internal control, and 210 ng of carrier plasmid pGEM. Cells were incubated in the presence of DOTAP for 8 hours, washed, and incubated in the presence of peroxisome proliferators or fatty acids for 36 hours. Cell extracts were prepared and assayed for luciferase and β-galactosidase activity as previously described (Umesono, supra). All experimental points were done in triplicate.

[2] = target: T2, PPARγ (Mus musculus, UniProt P37238, N383S); test: Cotransfection assay in CV-1 cells, PPRE3-TK-LUC reporter, CMX-PPARγ; format: cell-based; conditions: 5 μM Wy 14,643, 30 μM linoleic acid, 30 μM LY-171883
T2 construct: The first clone encodes a 475-amino acid protein; expressed in transfected cells; host or cells: CV-1 cells
T2 sequence (P37238 31-505 N383S): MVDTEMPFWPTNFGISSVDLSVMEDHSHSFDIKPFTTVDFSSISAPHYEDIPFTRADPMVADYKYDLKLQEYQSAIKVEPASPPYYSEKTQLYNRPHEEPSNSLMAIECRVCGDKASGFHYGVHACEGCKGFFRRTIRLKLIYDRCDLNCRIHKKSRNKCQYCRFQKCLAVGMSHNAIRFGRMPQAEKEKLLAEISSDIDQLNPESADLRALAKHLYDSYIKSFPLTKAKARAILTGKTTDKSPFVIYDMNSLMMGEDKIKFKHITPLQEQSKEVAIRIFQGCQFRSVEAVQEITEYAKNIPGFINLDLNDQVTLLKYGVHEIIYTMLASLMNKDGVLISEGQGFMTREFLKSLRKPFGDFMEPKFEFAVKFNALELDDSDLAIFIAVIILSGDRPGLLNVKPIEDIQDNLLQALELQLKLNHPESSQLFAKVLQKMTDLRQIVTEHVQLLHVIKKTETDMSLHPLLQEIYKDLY
From the text: as §1, §2

[3] = target: T3, PPARδ (Mus musculus, UniProt P35396, A150G/E149D); test: Cotransfection assay in CV-1 cells, PPRE3-TK-LUC reporter, CMX-PPARδ; format: cell-based; conditions: 5 μM Wy 14,643, 30 μM linoleic acid, 30 μM LY-171883
T3 construct: The second clone encodes a 440-amino acid protein; expressed in transfected cells; host or cells: CV-1 cells
T3 sequence (P35396 1-440 E149D/A150G): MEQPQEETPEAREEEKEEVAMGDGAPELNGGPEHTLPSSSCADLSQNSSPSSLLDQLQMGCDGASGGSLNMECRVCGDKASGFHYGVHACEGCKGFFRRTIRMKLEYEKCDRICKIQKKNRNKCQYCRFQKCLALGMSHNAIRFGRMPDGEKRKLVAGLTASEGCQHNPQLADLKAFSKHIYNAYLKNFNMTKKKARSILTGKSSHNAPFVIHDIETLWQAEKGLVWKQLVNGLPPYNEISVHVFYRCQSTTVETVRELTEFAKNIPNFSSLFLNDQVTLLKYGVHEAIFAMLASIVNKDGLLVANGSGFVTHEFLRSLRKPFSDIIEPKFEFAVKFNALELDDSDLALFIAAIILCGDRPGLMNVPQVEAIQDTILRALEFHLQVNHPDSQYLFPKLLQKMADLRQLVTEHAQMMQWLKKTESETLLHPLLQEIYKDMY
From the text: as §2

[4] = system: PPARα; test: cell_activity; conditions: 5 uM Wy 14,643, CV-1 cells, luciferase reporter

Row | Compound | activation of PPARα (reporter expression) [1] | activation of PPARγ (reporter expression) [2] | activation of PPARδ (reporter expression) [3] | activity (fold activation) [4]
1 | CCCc1c(OCCCCc2nnn[nH]2)ccc(C(C)=O)c1O [LY-171883] | strong activators | significant activation; also recorded: most efficiently activated | not activated | 
2 | CCCCC/C=C\C/C=C\CCCCCCCC(=O)O [linoleic acid] | strong activators | no activation | activated; also recorded: most efficiently activated | 
3 | Cc1cccc(Nc2cc(Cl)nc(SCC(=O)O)n2)c1C [Wy 14,643] | most efficiently activated | no activation; also recorded: fail to respond; also recorded: fails to activate |  | 
4 | PPRE3-TK-LUC (three copies of AOX-PPRE) |  |  |  | > 100
